Results from article doi:10.1101/2020.06.11.145995v1 (biorxiv, 2020).
Like-named read-outs stand apart in the source and are kept apart here. Values belong to the compound of their own block, whether it stands above or below them.

How the values were obtained:
Assay in all cases: biochemical
MAST1 = MAST1 (Homo sapiens, UniProt Q9Y2H9)
KIT = KIT (Homo sapiens, UniProt P10721)
FGR = FGR (Homo sapiens, UniProt P09769)
CLK2 = CLK2 (Homo sapiens, UniProt P49760)
ANKK1 = ANKK1 (Homo sapiens, UniProt Q8NFD2)
CAMK2A = CAMK2A (Homo sapiens, UniProt Q9UQM7)
CIT = CIT (Homo sapiens, UniProt O14578)
FER = FER (Homo sapiens, UniProt P16591)
DYRK1A = DYRK1A (Homo sapiens, UniProt Q13627)
CDC2L1 = CDC2L1 (Homo sapiens, UniProt P21127)
Chain of CDC2L1 (P21127 whole entry): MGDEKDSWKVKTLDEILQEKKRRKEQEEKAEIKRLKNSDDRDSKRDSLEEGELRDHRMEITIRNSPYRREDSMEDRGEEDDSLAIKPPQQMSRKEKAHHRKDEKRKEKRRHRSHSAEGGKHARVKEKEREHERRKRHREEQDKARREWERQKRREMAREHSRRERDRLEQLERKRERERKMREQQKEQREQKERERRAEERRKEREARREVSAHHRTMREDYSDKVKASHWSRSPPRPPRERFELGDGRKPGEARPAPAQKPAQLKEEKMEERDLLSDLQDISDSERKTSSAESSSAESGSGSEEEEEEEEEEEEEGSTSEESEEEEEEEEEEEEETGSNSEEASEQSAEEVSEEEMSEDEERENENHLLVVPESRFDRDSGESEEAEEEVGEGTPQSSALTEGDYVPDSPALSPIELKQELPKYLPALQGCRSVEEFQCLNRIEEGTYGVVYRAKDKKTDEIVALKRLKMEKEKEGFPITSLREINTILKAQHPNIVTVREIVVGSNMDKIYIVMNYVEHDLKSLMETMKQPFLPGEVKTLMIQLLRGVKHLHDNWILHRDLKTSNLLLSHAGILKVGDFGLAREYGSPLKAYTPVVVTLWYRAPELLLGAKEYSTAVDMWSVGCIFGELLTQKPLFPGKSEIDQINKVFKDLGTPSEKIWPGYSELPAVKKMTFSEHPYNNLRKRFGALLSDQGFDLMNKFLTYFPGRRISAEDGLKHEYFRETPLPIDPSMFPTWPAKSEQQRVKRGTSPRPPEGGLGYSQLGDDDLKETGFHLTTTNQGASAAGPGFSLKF

CAMK2B = CAMK2B (Homo sapiens, UniProt Q13554)
MERTK = MERTK (Homo sapiens, UniProt Q12866)
BMPR1B = BMPR1B (Homo sapiens, UniProt O00238)
FGFR3 = FGFR3 (Homo sapiens, UniProt P22607)
Chain of FGFR3 (P22607 whole entry): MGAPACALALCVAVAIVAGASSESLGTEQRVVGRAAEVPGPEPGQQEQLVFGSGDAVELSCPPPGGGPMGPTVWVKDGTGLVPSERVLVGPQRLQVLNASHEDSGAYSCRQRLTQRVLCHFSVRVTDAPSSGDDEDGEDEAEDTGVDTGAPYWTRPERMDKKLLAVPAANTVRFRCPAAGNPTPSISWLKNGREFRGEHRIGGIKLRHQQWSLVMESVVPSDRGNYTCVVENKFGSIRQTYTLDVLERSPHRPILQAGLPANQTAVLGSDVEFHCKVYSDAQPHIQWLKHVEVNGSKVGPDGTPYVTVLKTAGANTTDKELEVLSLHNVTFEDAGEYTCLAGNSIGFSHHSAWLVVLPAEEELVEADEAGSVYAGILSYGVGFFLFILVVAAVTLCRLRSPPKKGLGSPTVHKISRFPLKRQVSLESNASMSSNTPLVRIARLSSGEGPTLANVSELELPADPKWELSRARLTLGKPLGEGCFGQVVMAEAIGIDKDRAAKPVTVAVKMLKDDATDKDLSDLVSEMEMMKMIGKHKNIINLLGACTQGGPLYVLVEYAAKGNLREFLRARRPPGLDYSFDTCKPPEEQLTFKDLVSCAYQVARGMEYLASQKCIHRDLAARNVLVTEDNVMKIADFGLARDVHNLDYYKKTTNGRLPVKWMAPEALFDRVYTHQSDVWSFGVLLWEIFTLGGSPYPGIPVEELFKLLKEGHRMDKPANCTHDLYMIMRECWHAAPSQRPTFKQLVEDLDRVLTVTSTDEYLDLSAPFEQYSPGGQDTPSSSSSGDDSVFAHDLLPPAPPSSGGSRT

MYO3B = MYO3B (Homo sapiens, UniProt Q8WXR4)
DRAK1 = DRAK1 (Homo sapiens, UniProt Q9UEE5)
Chain of DRAK1 (Q9UEE5 whole entry): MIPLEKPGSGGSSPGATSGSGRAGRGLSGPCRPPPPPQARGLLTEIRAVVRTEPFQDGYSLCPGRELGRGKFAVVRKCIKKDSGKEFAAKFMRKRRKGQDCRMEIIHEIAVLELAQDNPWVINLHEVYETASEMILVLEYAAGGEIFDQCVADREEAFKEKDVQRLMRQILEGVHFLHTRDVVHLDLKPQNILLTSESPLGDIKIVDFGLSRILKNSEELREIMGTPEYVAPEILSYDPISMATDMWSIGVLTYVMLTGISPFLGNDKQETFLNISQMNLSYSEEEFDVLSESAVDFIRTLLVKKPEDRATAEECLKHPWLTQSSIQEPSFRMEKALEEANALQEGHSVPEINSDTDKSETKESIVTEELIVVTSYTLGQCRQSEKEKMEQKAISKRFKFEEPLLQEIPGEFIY

AXL = AXL (Homo sapiens, UniProt P30530)
CSNK1G3 = CSNK1G3 (Homo sapiens, UniProt Q9Y6M4)
IKK-beta = IKK-beta (Homo sapiens, UniProt O14920)
DAPK3 = DAPK3 (Homo sapiens, UniProt O43293)
CDK5 = CDK5 (Homo sapiens, UniProt Q00535)
Chain of CDK5 (Q00535 whole entry): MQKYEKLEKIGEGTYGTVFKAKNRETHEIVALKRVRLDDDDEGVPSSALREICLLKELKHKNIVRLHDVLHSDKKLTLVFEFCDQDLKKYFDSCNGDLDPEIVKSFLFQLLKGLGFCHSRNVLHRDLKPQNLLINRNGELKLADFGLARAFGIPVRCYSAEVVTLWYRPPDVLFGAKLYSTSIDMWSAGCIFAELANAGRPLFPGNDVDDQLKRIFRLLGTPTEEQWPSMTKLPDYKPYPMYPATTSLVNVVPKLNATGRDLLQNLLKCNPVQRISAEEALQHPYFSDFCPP

FGFR3(G697C) = FGFR3(G697C) (Homo sapiens, UniProt P22607, G697C)
Chain of FGFR3(G697C) (P22607 whole entry G697C): as the sequence (P22607 whole entry) above, with G697C counted along it

MAP3K4 = MAP3K4 (Homo sapiens, UniProt Q9Y6R4)
GAK = GAK (Homo sapiens, UniProt O14976)
Chain of GAK (O14976 whole entry): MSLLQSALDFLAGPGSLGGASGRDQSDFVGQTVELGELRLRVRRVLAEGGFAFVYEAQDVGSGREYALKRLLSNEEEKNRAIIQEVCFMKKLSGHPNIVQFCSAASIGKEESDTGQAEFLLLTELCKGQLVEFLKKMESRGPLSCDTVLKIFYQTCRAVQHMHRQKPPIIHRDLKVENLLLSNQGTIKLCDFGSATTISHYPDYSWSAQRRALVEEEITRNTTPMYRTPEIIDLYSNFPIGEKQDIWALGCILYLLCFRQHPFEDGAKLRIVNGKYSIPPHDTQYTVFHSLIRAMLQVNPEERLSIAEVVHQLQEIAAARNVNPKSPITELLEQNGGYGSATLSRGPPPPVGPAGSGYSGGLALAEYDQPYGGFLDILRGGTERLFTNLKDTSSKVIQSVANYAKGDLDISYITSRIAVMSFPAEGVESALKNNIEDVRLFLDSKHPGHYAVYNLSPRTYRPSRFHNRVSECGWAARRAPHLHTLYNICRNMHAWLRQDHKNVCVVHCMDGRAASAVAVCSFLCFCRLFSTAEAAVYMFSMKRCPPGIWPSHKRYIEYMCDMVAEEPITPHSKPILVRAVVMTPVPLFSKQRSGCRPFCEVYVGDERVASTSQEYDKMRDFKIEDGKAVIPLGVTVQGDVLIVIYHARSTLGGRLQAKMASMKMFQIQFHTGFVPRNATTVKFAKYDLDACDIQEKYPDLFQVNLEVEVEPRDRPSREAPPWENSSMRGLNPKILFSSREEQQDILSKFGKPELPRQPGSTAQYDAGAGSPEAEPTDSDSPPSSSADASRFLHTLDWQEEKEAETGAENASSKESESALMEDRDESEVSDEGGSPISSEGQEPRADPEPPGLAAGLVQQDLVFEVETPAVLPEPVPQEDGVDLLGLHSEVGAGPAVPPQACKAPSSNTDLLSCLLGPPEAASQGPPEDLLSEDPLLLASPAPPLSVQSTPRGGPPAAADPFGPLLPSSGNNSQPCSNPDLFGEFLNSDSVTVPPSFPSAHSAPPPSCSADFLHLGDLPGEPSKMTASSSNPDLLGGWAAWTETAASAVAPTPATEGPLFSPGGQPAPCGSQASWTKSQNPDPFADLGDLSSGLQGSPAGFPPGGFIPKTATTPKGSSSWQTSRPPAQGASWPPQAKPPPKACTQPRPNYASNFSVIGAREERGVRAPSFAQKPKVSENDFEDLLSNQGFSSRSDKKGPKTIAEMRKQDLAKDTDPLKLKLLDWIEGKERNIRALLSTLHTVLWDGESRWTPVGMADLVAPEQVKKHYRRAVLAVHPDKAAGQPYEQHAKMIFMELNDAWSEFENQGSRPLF

EGFR(G719C) = EGFR(G719C) (Homo sapiens, UniProt P00533, G719C)
GRK1 = GRK1 (Homo sapiens, UniProt Q15835)
MUSK = MUSK (Homo sapiens, UniProt O15146)
CDK4-cyclinD3 = CDK4-cyclinD3 (Homo sapiens, UniProt P11802)
MST4 = MST4 (Homo sapiens, UniProt Q9P289)
BMX = BMX (Homo sapiens, UniProt P51813)
Chain of BMX (P51813 whole entry): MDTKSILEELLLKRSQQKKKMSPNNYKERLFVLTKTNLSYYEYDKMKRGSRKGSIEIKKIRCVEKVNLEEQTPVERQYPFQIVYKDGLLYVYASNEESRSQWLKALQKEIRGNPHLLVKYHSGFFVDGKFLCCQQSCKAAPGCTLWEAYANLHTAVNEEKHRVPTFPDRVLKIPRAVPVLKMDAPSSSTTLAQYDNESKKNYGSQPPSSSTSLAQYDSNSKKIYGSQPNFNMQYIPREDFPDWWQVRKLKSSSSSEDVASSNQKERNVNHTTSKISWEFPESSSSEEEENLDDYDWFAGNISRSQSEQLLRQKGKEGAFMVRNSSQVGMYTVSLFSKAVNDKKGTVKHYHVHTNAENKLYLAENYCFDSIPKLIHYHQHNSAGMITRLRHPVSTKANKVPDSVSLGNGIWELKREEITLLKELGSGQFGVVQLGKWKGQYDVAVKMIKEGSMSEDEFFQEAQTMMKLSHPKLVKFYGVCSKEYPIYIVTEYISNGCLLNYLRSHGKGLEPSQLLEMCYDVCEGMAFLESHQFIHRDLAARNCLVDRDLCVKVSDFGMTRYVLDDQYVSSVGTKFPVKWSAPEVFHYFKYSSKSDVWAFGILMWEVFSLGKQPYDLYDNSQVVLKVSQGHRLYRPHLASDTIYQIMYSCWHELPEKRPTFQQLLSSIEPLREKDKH

[1] = read-out: CPT-1-70-1 (1uM) % control
[2] = read-out: HYJ-2-002-1 (1uM) % control

Chain of CLK2 (P49760 whole entry): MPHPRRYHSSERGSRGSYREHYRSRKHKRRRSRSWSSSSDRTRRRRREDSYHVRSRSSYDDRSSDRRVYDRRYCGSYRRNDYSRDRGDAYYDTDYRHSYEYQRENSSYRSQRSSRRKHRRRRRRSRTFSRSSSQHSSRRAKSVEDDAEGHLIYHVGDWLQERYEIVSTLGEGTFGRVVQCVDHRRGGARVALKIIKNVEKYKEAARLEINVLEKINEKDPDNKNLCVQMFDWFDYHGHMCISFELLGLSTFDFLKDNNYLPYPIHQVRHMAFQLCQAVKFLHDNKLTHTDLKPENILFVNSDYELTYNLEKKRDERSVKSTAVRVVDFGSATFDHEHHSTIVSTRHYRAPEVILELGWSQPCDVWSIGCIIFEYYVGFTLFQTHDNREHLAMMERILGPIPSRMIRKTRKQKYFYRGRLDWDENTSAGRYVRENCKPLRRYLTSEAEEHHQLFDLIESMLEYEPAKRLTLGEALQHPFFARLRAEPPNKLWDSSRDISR

Compound: CN1CCN(c2ccc(Nc3nc(Oc4ccc(NC(=O)CCl)cc4)c4cc[nH]c4n3)cc2)CC1 [CPT1-70-1]
remaining activity at 1 µM (MAST1; [1]): 100% | remaining activity at 1 µM (KIT; [1]): 20% | remaining activity at 1 µM (FGR; [1]): 4.2% | remaining activity at 1 µM (CLK2; [1]): 22% | remaining activity at 1 µM (ANKK1; [1]): 93% | remaining activity at 1 µM (CAMK2A; [1]): 95% | remaining activity at 1 µM (CIT; [1]): 26% | remaining activity at 1 µM (FER; [1]): 45% | remaining activity at 1 µM (DYRK1A; [1]): 100% | remaining activity at 1 µM (CDC2L1; [1]): 100% | remaining activity at 1 µM (CAMK2B; [1]): 100% | remaining activity at 1 µM (MERTK; [1]): 70% | remaining activity at 1 µM (BMPR1B; [1]): 100% | remaining activity at 1 µM (FGFR3; [1]): 35% | remaining activity at 1 µM (MYO3B; [1]): 100% | remaining activity at 1 µM (DRAK1; [1]): 14% | remaining activity at 1 µM (AXL; [1]): 4.8% | remaining activity at 1 µM (CSNK1G3; [1]): 2.6% | remaining activity at 1 µM (IKK-beta; [1]): 100% | remaining activity at 1 µM (DAPK3; [1]): 59% | remaining activity at 1 µM (CDK5; [1]): 100% | remaining activity at 1 µM (FGFR3(G697C); [1]): 34% | remaining activity at 1 µM (MAP3K4; [1]): 66% | remaining activity at 1 µM (GAK; [1]): 7.9% | remaining activity at 1 µM (EGFR(G719C); [1]): 8% | remaining activity at 1 µM (GRK1; [1]): 82% | remaining activity at 1 µM (MUSK; [1]): 8.8% | remaining activity at 1 µM (CDK4-cyclinD3; [1]): 100% | remaining activity at 1 µM (MST4; [1]): 49% | remaining activity at 1 µM (BMX; [1]): 9.2%

remaining activity at 1 µM (MAST1; [2]): 99% | remaining activity at 1 µM (KIT; [2]): 0% | remaining activity at 1 µM (FGR; [2]): 0.75% | remaining activity at 1 µM (CLK2; [2]): 85% | remaining activity at 1 µM (ANKK1; [2]): 9.4% | remaining activity at 1 µM (CAMK2A; [2]): 100% | remaining activity at 1 µM (CIT; [2]): 6.7% | remaining activity at 1 µM (FER; [2]): 56% | remaining activity at 1 µM (DYRK1A; [2]): 62% | remaining activity at 1 µM (CDC2L1; [2]): 88% | remaining activity at 1 µM (CAMK2B; [2]): 74% | remaining activity at 1 µM (MERTK; [2]): 30% | remaining activity at 1 µM (BMPR1B; [2]): 100% | remaining activity at 1 µM (FGFR3; [2]): 28% | remaining activity at 1 µM (MYO3B; [2]): 49% | remaining activity at 1 µM (DRAK1; [2]): 82% | remaining activity at 1 µM (AXL; [2]): 21% | remaining activity at 1 µM (CSNK1G3; [2]): 65% | remaining activity at 1 µM (IKK-beta; [2]): 0.3% | remaining activity at 1 µM (DAPK3; [2]): 100% | remaining activity at 1 µM (CDK5; [2]): 100% | remaining activity at 1 µM (FGFR3(G697C); [2]): 29% | remaining activity at 1 µM (MAP3K4; [2]): 100% | remaining activity at 1 µM (GAK; [2]): 4.8% | remaining activity at 1 µM (EGFR(G719C); [2]): 0.75% | remaining activity at 1 µM (GRK1; [2]): 100% | remaining activity at 1 µM (MUSK; [2]): 1.4% | remaining activity at 1 µM (CDK4-cyclinD3; [2]): 100% | remaining activity at 1 µM (MST4; [2]): 98% | remaining activity at 1 µM (BMX; [2]): 8.7%
Compound: CCN1CCN(Cc2ccc(NC(=O)c3ccc(C)c(CCc4cnc5[nH]ccc5c4OC)c3)cc2C(F)(F)F)CC1 [HYJ-2-002-1]
